From patent US20230059136A1, “THE COMPOUNDS AND COMPOSITIONS FOR TREATING CONDITIONS ASSOCIATED WITH NLRP ACTIVITY” (Novartis AG, priority 2018, published 2023) come the findings set out here.

Like-named read-outs stand apart in the source and are kept apart here.

In the test the test system is IL-1β production in PMA-differentiated THP-1 cells. As to the kind of experiment: IL-1β production in PMA-differentiated THP-1 cells stimulated with gramicidin (hTHP-1 assay containing 2% fetal bovine serum). Particulars: 2% fetal bovine serum, read-out: hTHP-1 IC50 (Average IC50 of compounds in hTHP-1 assay). In kind it is cell-based, human. Put shortly:
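IL-1β release was read by HTRF on supernatants of 50,000 PMA-primed (20 ng/ml, 16-18 h) THP-1 cells/well in 2% FBS medium. Cells saw compound for 1 h (11-point titration from 100 μM, 0.37% DMSO) before a 2 h gramicidin (5 μM) challenge.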

Setting [1] is: Homo sapiens, THP-1, Table B1, class symbols.
[2] abbreviates: Homo sapiens, THP-1, Table B1, cells printed as numeric bound.

Usually IC50 stands for the point on the concentration scale where inhibition reaches its midpoint. For `CC(C)c1cc(C#CC2CCOCC2)cc(C(C)C)c1CC(=O)N=S(N)(=O)c1cc(C(C)(C)O)n(-c2ccccc2)n1` (single isomer, unassigned) [Example 277, (R) or (S)-N-(amino (5-(2-hydroxypropan-2-yl)-1-phenyl-1H-pyrazol-3-yl)(oxo-λ^6-sulfaneylidene)-2-(2,6-diisopropyl-4-((tetrahydro-2H-pyran-4-yl)ethynyl)phenyl)acetamide], the half-maximal inhibitory concentration (IC50) under setting [1] was in the range of 0.2 to 1 µM.
Take `CC(C)c1cc(C#CC2CCOCC2)cc(C(C)C)c1CC(=O)N=S(N)(=O)c1cc(C(C)(C)O)n(-c2ccccc2)n1` (single isomer, unassigned) [Example 278, (S) or (R)-N-(amino(5-(2-hydroxypropan-2-yl)-1-phenyl-1H-pyrazol-3-yl)(oxo)-λ^6-sulfaneylidene)-2-(2,6-diisopropyl-4-((tetrahydro-2H-pyran-4-yl)ethynyl)phenyl)acetamide]: the IC50 under setting [2] is more than 30 µM.
For `CC(C)c1cc(C#CC2CCCCC2)cc(C(C)C)c1CC(=O)N=S(N)(=O)c1cc(C(C)(C)O)n(-c2ccccc2)n1` (single isomer, unassigned) [Example 279, (R) or (S)-N-(amino(5-(2-hydroxypropan-2-yl)-1-phenyl-1H-pyrazol-3-yl)(oxo)-λ^6-sulfaneylidene)-2-(4-(cyclohexylethynyl)-2,6-diisopropylphenyl) acetamide], the 50% inhibitory concentration (IC50) under setting [1] is 1 to 5 µM.
For the molecule `CC(C)c1cc(C#CC2CCCCC2)cc(C(C)C)c1CC(=O)N=S(N)(=O)c1cc(C(C)(C)O)n(-c2ccccc2)n1` (single isomer, unassigned) [Example 280, (S) or (R)-N-(amino (5-(2-hydroxypropan-2-yl)-1-phenyl-1H-pyrazol-3-yl)(oxo)-λ^6-sulfaneylidene)-2-(4-(cyclohexylethynyl)-2,6-diisopropylphenyl) acetamide], the half-inhibitory concentration (IC50) under setting [2] is more than 30 µM.
On to `CC(C)c1cc(CCC2CCCCC2)cc(C(C)C)c1CC(=O)N=S(N)(=O)c1cc(C(C)(C)O)n(-c2ccccc2)n1` (single isomer, unassigned) [Example 281, (R) or (S)-N-(amino(5-(2-hydroxypropan-2-yl)-1-phenyl-1H-pyrazol-3-yl)(oxo)-λ^6-sulfaneylidene)-2-(4-(2-cyclohexylethyl)-2,6-diisopropylphenyl) acetamide], for which the concentration for half-maximal inhibition (IC50) under setting [1] lay in the range of 5 to 30 µM.
`CC(C)c1cc(CCC2CCCCC2)cc(C(C)C)c1CC(=O)N=S(N)(=O)c1cc(C(C)(C)O)n(-c2ccccc2)n1` (single isomer, unassigned) [Example 282, (S) or (R)-N-(amino(5-(2-hydroxypropan-2-yl)-1-phenyl-1H-pyrazol-3-yl)(oxo)-λ^6-sulfaneylidene)-2-(4-(2-cyclohexylethyl)-2,6-diisopropylphenyl) acetamide]: the 50% inhibitory concentration (IC50) under setting [2] is more than 30 µM.
For `CC(C)c1cc(COC2CCCC2)cc(C(C)C)c1CC(=O)N=S(N)(=O)c1cc(C(C)(C)O)n(-c2ccc(F)cc2)n1` (single isomer, unassigned) [Example 283, (R) or (S)-N-(amino(1-(4-fluorophenyl)-5-(2-hydroxypropan-2-yl)-1H-pyrazol-3-yl)(oxo)-λ^6-sulfaneylidene)-2-(4-((cyclopentyloxy)methyl)-2,6-diisopropylphenyl) acetamide], the half-inhibitory concentration (IC50) under setting [1] was in the range of 0.2 to 1 µM.
On to `CC(C)c1cc(COC2CCCC2)cc(C(C)C)c1CC(=O)N=S(N)(=O)c1cc(C(C)(C)O)n(-c2ccc(F)cc2)n1` (single isomer, unassigned) [Example 284, (S) or (R)-N-(amino(1-(4-fluorophenyl)-5-(2-hydroxypropan-2-yl)-1H-pyrazol-3-yl)(oxo)-λ^6-sulfaneylidene)-2-(4-((cyclopentyloxy)methyl)-2,6-diisopropylphenyl) acetamide], for which the IC50 under setting [2] is more than 30 µM.
With `CC(C)c1cc(C(=O)CC2CCCCC2)cc(C(C)C)c1CC(=O)N=S(N)(=O)c1cc(C(C)(C)O)n(-c2ccccc2)n1` (single isomer, unassigned) [Example 285, (R) or (S)-N-(amino(5-(2-hydroxypropan-2-yl)-1-phenyl-1H-pyrazol-3-yl)(oxo)-λ^6-sulfaneylidene)-2-(4-(2-cyclohexylacetyl)-2,6-diisopropylphenyl) acetamide], under setting [1], the concentration for half-maximal inhibition (IC50) lay in the range of 1 to 5 µM.
As for `CC(C)c1cc(C(=O)CC2CCCCC2)cc(C(C)C)c1CC(=O)N=S(N)(=O)c1cc(C(C)(C)O)n(-c2ccccc2)n1` (single isomer, unassigned) [Example 286, (S) or (R)-N-(amino (5-(2-hydroxypropan-2-yl)-1-phenyl-1H-pyrazol-3-yl)(oxo)-λ^6-sulfaneylidene)-2-(4-(2-cyclohexylacetyl)-2,6-diisopropylphenyl) acetamide], the IC50 under setting [2] was more than 30 µM.
Take `CC(C)c1cc(COC2CCCC2)cc(C(C)C)c1CC(=O)N=S(N)(=O)c1cnc(C(C)(C)O)s1` (single isomer, unassigned) [Example 287, (R) or (S)-N-(amino(2-(2-hydroxypropan-2-yl)thiazol-5-yl)(oxo)-λ^6-sulfaneylidene)-2-(4-((cyclopentyloxy)methyl)-2,6-diisopropylphenyl) acetamide]: under setting [1], the concentration for half-maximal inhibition (IC50) was 0.04 to 0.2 µM.
As for `CC(C)c1cc(COC2CCCC2)cc(C(C)C)c1CC(=O)N=S(N)(=O)c1cnc(C(C)(C)O)s1` (single isomer, unassigned) [Example 288, (S) or (R)-N-(amino(2-(2-hydroxypropan-2-yl)thiazol-5-yl)(oxo)-λ^6-sulfaneylidene)-2-(4-((cyclopentyloxy)methyl)-2,6-diisopropylphenyl) acetamide], the 50% inhibitory concentration (IC50) under setting [2] is more than 30 µM.
Turning to `CCc1c2c(cc(C(C)C)c1CC(=O)N=S(N)(=O)c1cnc(C(C)(C)O)s1)COC2` (single isomer, unassigned) [Example 289, (R) or (S)-N-(amino(2-(2-hydroxypropan-2-yl)thiazol-5-yl)(oxo)-λ^6-sulfaneylidene)-2-(4-ethyl-6-isopropyl-1,3-dihydroisobenzofuran-5-yl)acetamide], the 50% inhibitory concentration (IC50) under setting [1] was 5 to 30 µM.
Take `CCc1c2c(cc(C(C)C)c1CC(=O)N=S(N)(=O)c1cnc(C(C)(C)O)s1)COC2` (single isomer, unassigned) [Example 290, (S) or (R)-N-(amino(2-(2-hydroxypropan-2-yl)thiazol-5-yl)(oxo)-λ^6-sulfaneylidene)-2-(4-ethyl-6-isopropyl-1,3-dihydroisobenzofuran-5-yl)acetamide]: the IC50 under setting [2] is more than 30 µM.
On to `CCc1cc2c(c(C(C)C)c1CC(=O)N=S(N)(=O)c1cnc(C(C)(C)O)s1)COC2` (single isomer, unassigned) [Example 291, (R) or (S)-N-(amino(2-(2-hydroxypropan-2-yl)thiazol-5-yl)(oxo)-λ^6-sulfaneylidene)-2-(6-ethyl-4-isopropyl-1,3-dihydroisobenzofuran-5-yl)acetamide], for which the 50% inhibitory concentration (IC50) under setting [1] was 5 to 30 µM.
Consider `CCc1cc2c(c(C(C)C)c1CC(=O)N=S(N)(=O)c1cnc(C(C)(C)O)s1)COC2` (single isomer, unassigned) [Example 292, (S) or (R)-N-(amino(2-(2-hydroxypropan-2-yl)thiazol-5-yl)(oxo)-λ^6-sulfaneylidene)-2-(6-ethyl-4-isopropyl-1,3-dihydroisobenzofuran-5-yl)acetamide], for which the IC50 under setting [2] was more than 30 µM.
With `CCc1c2c(cc(C(C)C)c1CC(=O)N=S(N)(=O)c1cc(C(C)(C)O)cs1)COC2` (single isomer, unassigned) [Example 293, (R) or (S)-N-(amino(4-(2-hydroxypropan-2-yl)thiophen-2-yl)(oxo)-λ^6-sulfaneylidene)-2-(4-ethyl-6-isopropyl-1,3-dihydroisobenzofuran-5-yl)acetamide], under “Table B1, class symbols”, the concentration for half-maximal inhibition (IC50) lay in the range of 0.2 to 1 µM.
For the molecule `CCc1c2c(cc(C(C)C)c1CC(=O)N=S(N)(=O)c1cc(C(C)(C)O)cs1)COC2` (single isomer, unassigned) [Example 294, (S) or (R)-N-(amino(4-(2-hydroxypropan-2-yl)thiophen-2-yl)(oxo)-λ^6-sulfaneylidene)-2-(4-ethyl-6-isopropyl-1,3-dihydroisobenzofuran-5-yl)acetamide], the IC50 (Table B1, class symbols) lay within 5 to 30 µM.
On to `CCc1cc2c(c(C(C)C)c1CC(=O)N=S(N)(=O)c1cc(C(C)(C)O)cs1)COC2` (single isomer, unassigned) [Example 295, (R) or (S)-N-(amino(4-(2-hydroxypropan-2-yl)thiophen-2-yl)(oxo)-λ^6-sulfaneylidene)-2-(6-ethyl-4-isopropyl-1,3-dihydroisobenzofuran-5-yl)acetamide], for which, under setting [1], the IC50 fell in the range of 0.2 to 1 µM.
In the case of `CCc1cc2c(c(C(C)C)c1CC(=O)N=S(N)(=O)c1cc(C(C)(C)O)cs1)COC2` (single isomer, unassigned) [Example 296, (S) or (R)-N-(amino(4-(2-hydroxypropan-2-yl)thiophen-2-yl)(oxo)-λ^6-sulfaneylidene)-2-(6-ethyl-4-isopropyl-1,3-dihydroisobenzofuran-5-yl)acetamide], under setting [2], the IC50 was more than 30 µM.
For `CCc1cc2c(c(C(C)C)c1CC(=O)N=S(N)(=O)c1sc(C(C)(C)O)cc1F)COC2` (single isomer, unassigned) [Example 297, (R) or (S)-N-(amino (3-fluoro-5-(2-hydroxypropan-2-yl)thiophen-2-yl)(oxo)-λ^6-sulfaneylidene)-2-(6-ethyl-4-isopropyl-1,3-dihydroisobenzofuran-5-yl)acetamide], the IC50 (Table B1, class symbols) fell in the range of 1 to 5 µM.
Turning to `CCc1cc2c(c(C(C)C)c1CC(=O)N=S(N)(=O)c1sc(C(C)(C)O)cc1F)COC2` (single isomer, unassigned) [Example 298, (S) or (R)-N-(amino(3-fluoro-5-(2-hydroxypropan-2-yl)thiophen-2-yl)(oxo)-λ^6-sulfaneylidene)-2-(6-ethyl-4-isopropyl-1,3-dihydroisobenzofuran-5-yl)acetamide], the IC50 (Table B1, class symbols) was in the range of 5 to 30 µM.
